As a reminder, the Ki is the equilibrium dissociation constant of an inhibitor or competing ligand from its target.

Assay [1] deals with T1, DDR2 (Homo sapiens, UniProt Q16832).
T1 construct: purchased Life Technologies
T1 sequence (Q16832 22-855): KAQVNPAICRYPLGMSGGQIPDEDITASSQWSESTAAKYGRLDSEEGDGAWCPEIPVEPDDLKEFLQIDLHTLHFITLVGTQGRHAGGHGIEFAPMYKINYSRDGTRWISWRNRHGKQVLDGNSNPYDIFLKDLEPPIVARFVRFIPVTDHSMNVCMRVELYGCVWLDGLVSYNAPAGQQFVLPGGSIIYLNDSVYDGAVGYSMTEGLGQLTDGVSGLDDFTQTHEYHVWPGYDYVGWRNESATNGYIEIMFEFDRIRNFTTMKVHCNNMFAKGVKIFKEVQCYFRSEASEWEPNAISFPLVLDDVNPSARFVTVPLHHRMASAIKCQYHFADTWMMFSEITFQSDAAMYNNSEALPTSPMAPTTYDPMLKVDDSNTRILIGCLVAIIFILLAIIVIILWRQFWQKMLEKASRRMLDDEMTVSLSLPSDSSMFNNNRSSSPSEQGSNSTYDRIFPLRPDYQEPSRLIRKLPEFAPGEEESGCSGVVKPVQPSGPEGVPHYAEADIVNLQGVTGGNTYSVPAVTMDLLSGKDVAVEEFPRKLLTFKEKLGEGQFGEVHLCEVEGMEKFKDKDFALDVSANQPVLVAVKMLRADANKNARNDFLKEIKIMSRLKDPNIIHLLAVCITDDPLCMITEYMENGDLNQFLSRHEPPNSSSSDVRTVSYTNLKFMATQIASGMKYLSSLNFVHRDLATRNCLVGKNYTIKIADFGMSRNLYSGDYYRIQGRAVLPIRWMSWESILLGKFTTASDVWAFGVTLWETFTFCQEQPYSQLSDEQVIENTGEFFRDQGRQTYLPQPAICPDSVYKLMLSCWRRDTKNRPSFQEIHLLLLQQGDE
As to the kind of experiment: LanthaScreen Europium Kinase Binding assay, DDR2. Particulars: 5 nM DDR2, 10 nM Kinase Tracer 178, 1 h at rt; Ki from IC50 by Cheng-Prusoff; read-out: Ki DDR2. The procedure:
(§1) DDR1 and DDR2 binding assays were performed using Life Technologies LanthaScreen™ Europium Kinase Binding assay. […] IC50 values were determined in GraphPad Prism 7.0 software, using 4 parameter model: log (inhibitor) vs. response. IC50 values were converted in Ki using the Cheng-Prusoff equation (Ki-IC50/(1+ [Tracer]/Kd).

Assay [2] concerns the target T2, DDR1 (Homo sapiens, UniProt Q08345).
T2 construct: purchased Carna Biosciences
As to the kind of experiment: LanthaScreen Europium Kinase Binding assay, DDR1. Particulars: 5 nM DDR1, 20 nM Kinase Tracer 178, 1 h at rt; Ki from IC50 by Cheng-Prusoff; read-out: Ki DDR1. The procedure: as §1
Background: TR-FRET usually uses a lanthanide donor and a delayed reading to cut background.

T2 sequence (Q08345 19-913): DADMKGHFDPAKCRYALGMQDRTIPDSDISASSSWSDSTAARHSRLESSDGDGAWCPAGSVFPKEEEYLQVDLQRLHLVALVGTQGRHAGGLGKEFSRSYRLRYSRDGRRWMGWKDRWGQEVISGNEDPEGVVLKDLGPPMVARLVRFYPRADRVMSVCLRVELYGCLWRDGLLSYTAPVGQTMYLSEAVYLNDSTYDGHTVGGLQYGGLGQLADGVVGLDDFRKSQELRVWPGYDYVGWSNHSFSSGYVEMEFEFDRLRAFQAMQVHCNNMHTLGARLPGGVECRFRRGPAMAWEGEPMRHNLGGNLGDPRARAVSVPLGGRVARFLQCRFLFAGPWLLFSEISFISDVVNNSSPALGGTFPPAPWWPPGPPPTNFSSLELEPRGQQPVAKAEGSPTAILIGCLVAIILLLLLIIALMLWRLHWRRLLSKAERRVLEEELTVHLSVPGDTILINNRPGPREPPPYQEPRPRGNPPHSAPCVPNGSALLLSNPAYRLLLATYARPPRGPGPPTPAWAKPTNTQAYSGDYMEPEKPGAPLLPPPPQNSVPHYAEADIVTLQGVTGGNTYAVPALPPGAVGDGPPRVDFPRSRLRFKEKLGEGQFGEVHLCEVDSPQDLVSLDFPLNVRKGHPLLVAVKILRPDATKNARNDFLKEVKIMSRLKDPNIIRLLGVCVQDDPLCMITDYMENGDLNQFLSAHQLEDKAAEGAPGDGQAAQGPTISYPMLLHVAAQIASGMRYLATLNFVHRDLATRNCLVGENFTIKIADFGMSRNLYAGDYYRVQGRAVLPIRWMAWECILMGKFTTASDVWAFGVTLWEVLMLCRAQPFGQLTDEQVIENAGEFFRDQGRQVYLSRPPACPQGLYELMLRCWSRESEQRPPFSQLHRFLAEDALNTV

`CCN(C(=O)Nc1cccc(C(F)(F)F)c1)C1CC2(C1)CN(C(=O)c1cnn3ccn(C)c13)C2` [Example 85, 1-ethyl-1-(2-(1-methyl-1H-imidazo[1,2-b]pyrazole-7-carbonyl)-2-azaspiro[3.3]heptan-6-yl)-3-(3-(trifluoromethyl)phenyl)urea]: the results for the Ki in assay [1] and in assay [2] were 5 to 25 nM and less than 5 nM, respectively.

As to `CCN(C(=O)Nc1cc(F)cc(C(F)(F)F)c1)C1CC2(C1)CN(C(=O)c1cnn3ccn(C)c13)C2` [Example 86, 1-ethyl-3-(3-fluoro-5-(trifluoromethyl)phenyl)-1-(2-(1-methyl-1H-imidazo[1,2-b]pyrazole-7-carbonyl)-2-azaspiro[3.3]heptan-6-yl)urea], the inhibitory constant (Ki) is 5 to 25 nM in assay [1] and less than 5 nM in assay [2].

Consider `CN1CCN(c2ccn3ncc(C(=O)N4CC5(CC(NC(=O)Nc6cc(C#N)cc(C(F)(F)F)c6)C5)C4)c3c2)CC1` [Example 87, 1-(3-cyano-5-(trifluoromethyl)phenyl)-3-(2-(5-(4-methylpiperazin-1-yl)pyrazolo[1,5-a]pyridine-3-carbonyl)-2-azaspiro[3.3]heptan-6-yl)urea], for which the inhibitory constant (Ki) in assay [1] was 5 to 25 nM; in assay [2] it was less than 5 nM.

`O=C(Nc1cccc(C(F)(F)F)c1)NC1CC2(C1)CN(C(=O)c1ncnc3sccc13)C2` [Example 88, 1-(2-(thieno[2,3-d]pyrimidine-4-carbonyl)-2-azaspiro[3.3]heptan-6-yl)-3-(3-(trifluoromethyl)phenyl)urea]: the Ki in assay [1] was 5 to 25 nM; in assay [2], less than 5 nM.

Regarding `O=C(Nc1cccc(OC(F)F)c1)NC1CC2(C1)CN(C(=O)c1ncnc3ccsc13)C2` [Example 89, 1-(3-(difluoromethoxy)phenyl)-3-(2-(thieno[3,2-d]pyrimidine-4-carbonyl)-2-azaspiro[3.3]heptan-6-yl)urea], the Ki in assay [1] and in assay [2] was less than 5 nM throughout.

Regarding `O=C(Nc1cc(C(F)(F)F)ccn1)NC1CC2(C1)CN(C(=O)c1ncnc3ccsc13)C2` [Example 90, 1-(2-(thieno[3,2-d]pyrimidine-4-carbonyl)-2-azaspiro[3.3]heptan-6-yl)-3-(4-(trifluoromethyl)pyridin-2-yl)urea], the Ki in assay [1] and in assay [2] was less than 5 nM in each case.

Take `COc1ccc(OC(F)F)cc1NC(=O)NC1CC2(C1)CN(C(=O)c1cnn3ccn(C)c13)C2` [Example 91, 1-(5-(difluoromethoxy)-2-methoxyphenyl)-3-(2-(1-methyl-1H-imidazo[1,2-b]pyrazole-7-carbonyl)-2-azaspiro[3.3]heptan-6-yl)urea]: the inhibition constant Ki is 5 to 25 nM in assay [1] and less than 5 nM in assay [2].

With `Cn1ccn2ncc(C(=O)N3CC4(CC(NC(=O)Nc5cc(OC(F)(F)F)ccc5Cl)C4)C3)c12` [Example 92, 1-(2-chloro-5-(trifluoromethoxy)phenyl)-3-(2-(1-methyl-1H-imidazo[1,2-b]pyrazole-7-carbonyl)-2-azaspiro[3.3]heptan-6-yl)urea], the Ki in assay [1] and in assay [2] was less than 5 nM each time.

For the molecule `O=C(Nc1cccc(C(F)(F)F)c1)NC1CC2(C1)CN(C(=O)c1ccnc3[nH]ncc13)C2` [Example 93, 1-(2-(1H-pyrazolo[3,4-b]pyridine-4-carbonyl)-2-azaspiro[3.3]heptan-6-yl)-3-(3-(trifluoromethyl)phenyl)urea], the Ki in assay [1] and in assay [2] was less than 5 nM each time.

As for `CN(C(=O)Nc1cc(CO)cc(C(F)(F)F)c1)C1CC2(C1)CN(C(=O)c1cnn3ccsc13)C2` [Example 94, 3-(3-(hydroxymethyl)-5-(trifluoromethyl)phenyl)-1-methyl-1-(2-(pyrazolo[5,1-b]thiazole-7-carbonyl)-2-azaspiro[3.3]heptan-6-yl)urea], the results for the Ki in assay [1] and in assay [2] were 5 to 25 nM and less than 5 nM, respectively.

For `O=C(Nc1cccc(C(F)(F)F)c1)NC1CC2(C1)CN(C(=O)c1cnc3sccn13)C2` [Example 96, 1-(2-(imidazo[2,1-b]thiazole-5-carbonyl)-2-azaspiro[3.3]heptan-6-yl)-3-(3-(trifluoromethyl)phenyl)urea], the Ki in assay [1] and in assay [2] was less than 5 nM each time.

For `O=C(Nc1cc(OC(F)(F)F)ccn1)NC1CC2(C1)CN(C(=O)c1cnn3ccsc13)C2` [Example 97, 1-(2-(pyrazolo[5,1-b]thiazole-7-carbonyl)-2-azaspiro[3.3]heptan-6-yl)-3-(4-(trifluoromethoxy)pyridin-2-yl)urea], the inhibitory constant (Ki) in assay [1] and in assay [2] was less than 5 nM in each case.

As for `CN(C(=O)Nc1cccc(S(F)(F)(F)(F)F)c1)C1CC2(C1)CN(C(=O)c1cnn3ccn(C)c13)C2` [Example 98, 1-methyl-1-(2-(1-methyl-1H-imidazo[1,2-b]pyrazole-7-carbonyl)-2-azaspiro[3.3]heptan-6-yl)-3-(3-(pentafluoro-16-sulfaneyl)phenyl)urea], the Ki in assay [1] and in assay [2] was less than 5 nM throughout.

`Cc1cc2ncnc(C(=O)N3CC4(CC(NC(=O)Nc5cccc(C(F)(F)F)c5)C4)C3)c2s1` [Example 99, 1-(2-(6-methylthieno[3,2-d]pyrimidine-4-carbonyl)-2-azaspiro[3.3]heptan-6-yl)-3-(3-(trifluoromethyl)phenyl)urea]: the Ki in assay [1] and in assay [2] was less than 5 nM in each case.

For the molecule `Cn1nc(NC(=O)NC2CC3(C2)CN(C(=O)c2ncnc4ccsc24)C3)cc1C(C)(C)C` [Example 100, 1-(5-(tert-butyl)-1-methyl-1H-pyrazol-3-yl)-3-(2-(thieno[3,2-d]pyrimidine-4-carbonyl)-2-azaspiro[3.3]heptan-6-yl)urea], the Ki in assay [1] was 5 to 25 nM; in assay [2], less than 5 nM.

For the molecule `O=C(Nc1cc(OC(F)(F)F)ccn1)NC1CC2(C1)CN(C(=O)c1ncnc3ccsc13)C2` [Example 101, 1-(2-(thieno[3,2-d]pyrimidine-4-carbonyl)-2-azaspiro[3.3]heptan-6-yl)-3-(4-(trifluoromethoxy)pyridin-2-yl)urea], the Ki in assay [1] and in assay [2] was less than 5 nM each time.

For `O=C(Nc1cccc(C(F)(F)F)c1)NC1CC2(C1)CN(C(=O)c1cnn3ccn(CCO)c13)C2` [Example 102, 1-(2-(1-(2-hydroxyethyl)-1H-imidazo[1,2-b]pyrazole-7-carbonyl)-2-azaspiro[3.3]heptan-6-yl)-3-(3-(trifluoromethyl)phenyl)urea], the values for the Ki in assay [1] and in assay [2] were 5 to 25 nM and less than 5 nM, respectively.

Consider `Cn1ccn2ncc(C(=O)N3CC4(CC(NC(=O)Nc5cc(C(F)(F)F)ncn5)C4)C3)c12` [Example 103, 1-(2-(1-methyl-1H-imidazo[1,2-b]pyrazole-7-carbonyl)-2-azaspiro[3.3]heptan-6-yl)-3-(6-(trifluoromethyl)pyrimidin-4-yl)urea], for which the Ki in assay [1] is 5 to 25 nM; in assay [2], less than 5 nM.

As to `Cc1ccc(OC(F)(F)F)cc1NC(=O)N(C)C1CC2(C1)CN(C(=O)c1cnn3ccn(C)c13)C2` [Example 104, 1-methyl-1-(2-(1-methyl-1H-imidazo[1,2-b]pyrazole-7-carbonyl)-2-azaspiro[3.3]heptan-6-yl)-3-(2-methyl-5-(trifluoromethoxy)phenyl)urea], the inhibition constant (Ki) in assay [1] is 5 to 25 nM; in assay [2] it was less than 5 nM.

In the case of `CN(C(=O)Nc1cc(OC(F)(F)F)ccn1)C1CC2(C1)CN(C(=O)c1cnn3ccn(C)c13)C2` [Example 105, 1-methyl-1-(2-(1-methyl-1H-imidazo[1,2-b]pyrazole-7-carbonyl)-2-azaspiro[3.3]heptan-6-yl)-3-(4-(trifluoromethoxy)pyridin-2-yl)urea], the inhibitory constant (Ki) is 5 to 25 nM in assay [1] and less than 5 nM in assay [2].

As to `Cn1ccn2ncc(C(=O)N3CC4(CC(NC(=O)Nc5cc(F)cc(C(F)(F)F)c5)C4)C3)c12` [Example 106, 1-(3-fluoro-5-(trifluoromethyl)phenyl)-3-(2-(1-methyl-1H-imidazo[1,2-b]pyrazole-7-carbonyl)-2-azaspiro[3.3]heptan-6-yl)urea], the inhibition constant (Ki) in assay [1] and in assay [2] was less than 5 nM throughout.

Turning to `COc1ncc(C(F)(F)F)cc1NC(=O)NC1CC2(C1)CN(C(=O)c1cnn3ccn(C)c13)C2` [Example 107, 1-(2-methoxy-5-(trifluoromethyl)pyridin-3-yl)-3-(2-(1-methyl-1H-imidazo[1,2-b]pyrazole-7-carbonyl)-2-azaspiro[3.3]heptan-6-yl)urea], the results for the inhibitory constant (Ki) in assay [1] and in assay [2] were 5 to 25 nM and less than 5 nM, respectively.

Values taken from US20260285855A1, “HETEROARYL DERIVATIVES AS DDRS INHIBITORS” (CHIESI FARMACEUTICI S.P.A., priority 2023, published 2026).
